Data published in patent publication US8394773B2, “Use of an alkyl glycoside or of a mixture of alkyl glycosides having anti-ageing and/or calming properties as active agents in cosmetic compositions, and methods of cosmetic care using said compositions” (LVMH Recherche, priority 2008, dated 2013).

Experiments:
PGE2 = assay: Quantification of the release of PGE2 into culture supernatants of HaCaT keratinocytes (immunoenzymatic kit, related to total proteins); assay type: cell-based; settings: for Inhibitory activity (%) (release of PGE2) / pg PGE2/mg prot / Liberation PGE2 (%): alkyl glycoside alone at 1 μM, 24 hours, HaCaT; for Liberation PGE2 (%): control (-) = 100
Description: PGE2 is an important marker of inflammatory response linked to tissue damage. It is produced by a wide variety of cells including monocytes, macrophages or keratinocytes.
(§1) The release of the Il-8 and PGE2 markers into cell line culture supernatants of immortalized keratinocytes (HaCaT), stimulated for 24 hours in the presence of oligosaccharides is quantified.
(§2) HaCaTs are cultured to 80% confluence.
(§3) A treatment is carried out over 24 hours with the product to be evaluated with, in the case of Il-8 alone, a parallel stimulation with interleukin-1.
(§4) The culture supernatants containing the markers are collected and stored at −20° C. up to the day of the assay.
(§5) The assay is carried out with the aid of a kit specific for each of the markers.
Assay of PGE2 by means of the Parameter PGE2 kit (R&D system).
(§6) These HaCaTs are inoculated at the rate of 10 000 cells/well (supplemented KSFM culture medium, Gibco) in a 96-well microplate.
(§7) The plate is placed in an incubator (37° C. and 5% CO2) for 24 hours.
(§8) The oligosaccharides, initially in the form of a 1 mM stock solution in DMSO, are exposed to the cells after suitable dilution in culture medium.
A column is treated with indomethacin as positive control inhibiting the release of PGE2.
(§9) Each concentration of product, the positive control and the control without treatment, are evaluated on 4 or 6 wells of HaCaT.
(§10) After 24 hours of treatment, the culture supernatants are collected and stored at −20° C.
(§11) The assay is carried out according to the protocol described in each of the kits, by an immunoenzymatic test which makes it possible to assay, by spectrophotometric measurement at 450 nm, the respective quantities of Il-8 and of PGE2 present in the supernatants.
(§12) The absorbance (OD) values obtained for the 2-fold dilution series for IL-8 standard and PGE2 standard (7 concentrations, in duplicate) are plotted on a logarithmic graph.
(§13) The known concentrations of IL-8 and PGE2, expressed in pg/ml, are plotted on the x-axis and the absorbance values on the y-axis, in order to obtain a straight line.
(§14) The absorbance values measured for each sample are in turn plotted on the graph, in order to determine the respective IL-8 and PGE2 concentrations, expressed in pg/ml.
(§15) The assay (in mg/ml) of the total proteins present in the cellular pellets, after treatment or non-treatment of the HaCaTs, makes it possible to relate the assay of IL-8 and of PGE2 to the quantity of proteins in each well of cells, expressed in picograms (pg) of markers per milligram (mg) of proteins.
(§16) The absorbance values for the 6 wells are converted to mg of proteins per well of HaCaT by means of the straight line obtained by the calibration series (quantity of proteins known for an absorbance determined at 570 nm).
(§17) Finally, for each well and each treatment condition, a quantitative assay of the release of Il-8 and of PGE2 is obtained, in pg/ml.
The test is carried out at a concentration of alkyl glycosides equal to 1 μM, after dilution in the culture medium.

Il-8 = assay: Quantification of the release of Il-8 into culture supernatants of HaCaT keratinocytes stimulated with Il-1 beta (ELISA, related to total proteins); assay type: cell-based, human; settings: for Inhibitory activity (%) (release of Il-8) / Liberation Il-8 (%) / pg IL8/mg prot: alkyl glycoside alone at 1 μM, 24 hours; for Inhibitory activity (%) (release of Il-8) / Liberation Il-8 (%): HaCaT + Il-1 beta; for Liberation Il-8 (%): control (-) = 100; for pg IL8/mg prot: HaCaT stimulated with Il-1 beta 25 ng/ml; for anti-Il-8 activity, in words: compounds tested alone, 1 μM
Description: as §1, §2, §3, §4, §5
The assay of human Il-8 by means of the ELISA AbC204/3 kit (Abcys).
as §6, §7, §8
In parallel, for Il-8, the cells are stimulated with Il-1 beta at 25 ng/ml.
A column is treated with cholecalciferol (vitamin D3) at 0.39 μg/ml and stimulated with Il-1 beta, as positive control inhibiting the release of Il-8.
A control column is not treated and stimulated with Il-1 beta.
as §9, §10, §11, §12, §13, §14, §15, §16, §17
This assay is related to a quantity of proteins, expressed in mg/ml. The final quantitative result for Il-8 is therefore expressed in pg/mg of proteins.
The percentage inhibition of the production of IL-8 is calculated as follows: […]
The test is carried out at a concentration of alkyl glycosides equal to 1 μM, after dilution in the culture medium, the negative control is pure DMSO.

CO[C@@H]1O[C@H](CO)[C@@H](O[C@H]2O[C@H](CO)[C@@H](O[C@H]3O[C@H](CO)[C@@H](O)[C@H](O)[C@H]3O)[C@H](O)[C@H]2O)[C@H](O)[C@H]1O [DP3-1, methyl beta-D-maltotrioside]
Inhibitory activity (%) (release of PGE2) (PGE2): 49.1% | pg PGE2/mg prot (PGE2): 159.6 pg/mg prot | Liberation PGE2 (%) (PGE2): 50.9% | Inhibitory activity (%) (release of Il-8) (Il-8): 71.9% | Liberation Il-8 (%) (Il-8): 28.1% | pg IL8/mg prot (Il-8): 346.6 pg/mg prot

CCCCCCCCO[C@@H]1O[C@H](CO)[C@@H](O)[C@H](O)[C@H]1O [DP1-8, n-Octyl-beta-D-glucopyranoside, reference compound]
Inhibitory activity (%) (release of PGE2) (PGE2): 0.3% | pg PGE2/mg prot (PGE2): 312.8 pg/mg prot | Liberation PGE2 (%) (PGE2): 99.7% | Inhibitory activity (%) (release of Il-8) (Il-8): 9.1% | Liberation Il-8 (%) (Il-8): 91.0% | pg IL8/mg prot (Il-8): 1121.6 pg/mg prot

CCCCCCCCCCCCO[C@@H]1O[C@H](CO)[C@@H](O[C@H]2O[C@H](CO)[C@@H](O[C@H]3O[C@H](CO)[C@@H](O)[C@H](O)[C@H]3O)[C@H](O)[C@H]2O)[C@H](O)[C@H]1O [DP3-12, dodecyl beta-D-maltotrioside]
Inhibitory activity (%) (release of PGE2) (PGE2): 18.8% | pg PGE2/mg prot (PGE2): 171.8 pg/mg prot | Liberation PGE2 (%) (PGE2): 81.2% | PGE2 inhibiting activity, in words (PGE2; compounds tested alone, 1 μM): acts on both markers | Inhibitory activity (%) (release of Il-8) (Il-8): 20.1% | Liberation Il-8 (%) (Il-8): 79.9% | pg IL8/mg prot (Il-8): 521.5 pg/mg prot | anti-Il-8 activity, in words (Il-8): acts on both markers | anti-Il-8 activity, in words (Il-8; listed as dodecyl maltotrioside): very small effect on the release of Il-8

CCCCCCCCCCCCO[C@@H]1O[C@H](CO)[C@@H](O[C@H]2O[C@H](CO)[C@@H](O)[C@H](O)[C@H]2O)[C@H](O)[C@H]1O [DP2-12, dodecyl beta-D-maltoside]
Inhibitory activity (%) (release of PGE2) (PGE2): 49.1% | pg PGE2/mg prot (PGE2): 159.8 pg/mg prot | Liberation PGE2 (%) (PGE2): 50.9% | Inhibitory activity (%) (release of Il-8) (Il-8): 82.9% | Liberation Il-8 (%) (Il-8): 17.1% | pg IL8/mg prot (Il-8): 211.0 pg/mg prot

CCCCCCCCO[C@@H]1O[C@H](CO)[C@@H](O[C@H]2O[C@H](CO)[C@@H](O)[C@H](O)[C@H]2O)[C@H](O)[C@H]1O [DP2-8, octyl beta-D-maltoside]
Inhibitory activity (%) (release of PGE2) (PGE2): 37.7% | pg PGE2/mg prot (PGE2): 195.5 pg/mg prot | Liberation PGE2 (%) (PGE2): 62.3% | Inhibitory activity (%) (release of Il-8) (Il-8): 69.4% | Liberation Il-8 (%) (Il-8): 30.6% | pg IL8/mg prot (Il-8): 377.7 pg/mg prot

CCCCCCCCCCCCO[C@@H]1O[C@H](CO)[C@@H](O)[C@H](O)[C@H]1O [DP1-12, n-dodecyl-beta-D-glucopyranoside, reference compound]
Inhibitory activity (%) (release of PGE2) (PGE2): 52.2% | pg PGE2/mg prot (PGE2): 150.0 pg/mg prot | Liberation PGE2 (%) (PGE2): 47.8% | Inhibitory activity (%) (release of Il-8) (Il-8): 24.6% | Liberation Il-8 (%) (Il-8): 75.4% | pg IL8/mg prot (Il-8): 930.3 pg/mg prot

CO[C@@H]1O[C@H](CO)[C@@H](O[C@H]2O[C@H](CO)[C@@H](O)[C@H](O)[C@H]2O)[C@H](O)[C@H]1O [DP2-1, methyl beta-D-maltoside]
Inhibitory activity (%) (release of PGE2) (PGE2): 58.2% | pg PGE2/mg prot (PGE2): 131.3 pg/mg prot | Liberation PGE2 (%) (PGE2): 41.8% | Inhibitory activity (%) (release of Il-8) (Il-8): 59.6% | Liberation Il-8 (%) (Il-8): 40.4% | pg IL8/mg prot (Il-8): 497.7 pg/mg prot
